Experimental findings from ChEMBL document CHEMBL1153114, “Discovery of orally available integrin alpha5beta1 antagonists” (Bioorg Med Chem Lett, 2010) are described below.

Some results are limits rather than exact numbers.

For one series, the target named is Integrin alpha-5/beta-1 (Homo sapiens, UniProt P05556+P08648). Kind of series: Binding affinity to integrin alpha5beta1 receptor by ELISA. The format is protein-complex assay.
Series [1] can be described thus: Oral bioavailability in Wistar rat at 10 mg/kg. The format is ADME, organism-based. The note with it: in vivo.
The target of another series is Integrin alpha-V/beta-3 (Homo sapiens, UniProt P05106+P06756). Kind of series: Binding affinity to integrin […] receptor by ELISA. The series is classed as protein-complex assay.
Integrin alpha-V/beta-3, sequence (P05106 27-788 limits assumed): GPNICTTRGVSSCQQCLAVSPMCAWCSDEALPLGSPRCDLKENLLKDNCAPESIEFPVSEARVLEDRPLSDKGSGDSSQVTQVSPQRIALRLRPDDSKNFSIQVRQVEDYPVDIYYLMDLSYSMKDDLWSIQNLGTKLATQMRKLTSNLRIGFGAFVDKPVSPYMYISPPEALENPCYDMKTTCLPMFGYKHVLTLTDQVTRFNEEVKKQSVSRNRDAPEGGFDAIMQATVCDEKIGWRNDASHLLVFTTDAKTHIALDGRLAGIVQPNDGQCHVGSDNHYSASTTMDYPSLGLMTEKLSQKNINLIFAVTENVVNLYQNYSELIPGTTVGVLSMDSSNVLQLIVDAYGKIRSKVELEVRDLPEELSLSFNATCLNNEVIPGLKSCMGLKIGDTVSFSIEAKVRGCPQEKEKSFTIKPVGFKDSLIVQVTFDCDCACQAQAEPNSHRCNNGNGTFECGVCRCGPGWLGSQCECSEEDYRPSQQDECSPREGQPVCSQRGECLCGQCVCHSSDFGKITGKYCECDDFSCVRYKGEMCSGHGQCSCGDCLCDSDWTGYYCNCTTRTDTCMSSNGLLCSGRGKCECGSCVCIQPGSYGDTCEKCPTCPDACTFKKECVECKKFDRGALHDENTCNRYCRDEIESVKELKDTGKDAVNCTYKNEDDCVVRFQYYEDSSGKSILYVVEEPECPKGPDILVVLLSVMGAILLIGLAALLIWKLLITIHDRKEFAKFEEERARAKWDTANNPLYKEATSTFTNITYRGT
Integrin alpha-V/beta-3, sequence (P06756 31-889 limits assumed): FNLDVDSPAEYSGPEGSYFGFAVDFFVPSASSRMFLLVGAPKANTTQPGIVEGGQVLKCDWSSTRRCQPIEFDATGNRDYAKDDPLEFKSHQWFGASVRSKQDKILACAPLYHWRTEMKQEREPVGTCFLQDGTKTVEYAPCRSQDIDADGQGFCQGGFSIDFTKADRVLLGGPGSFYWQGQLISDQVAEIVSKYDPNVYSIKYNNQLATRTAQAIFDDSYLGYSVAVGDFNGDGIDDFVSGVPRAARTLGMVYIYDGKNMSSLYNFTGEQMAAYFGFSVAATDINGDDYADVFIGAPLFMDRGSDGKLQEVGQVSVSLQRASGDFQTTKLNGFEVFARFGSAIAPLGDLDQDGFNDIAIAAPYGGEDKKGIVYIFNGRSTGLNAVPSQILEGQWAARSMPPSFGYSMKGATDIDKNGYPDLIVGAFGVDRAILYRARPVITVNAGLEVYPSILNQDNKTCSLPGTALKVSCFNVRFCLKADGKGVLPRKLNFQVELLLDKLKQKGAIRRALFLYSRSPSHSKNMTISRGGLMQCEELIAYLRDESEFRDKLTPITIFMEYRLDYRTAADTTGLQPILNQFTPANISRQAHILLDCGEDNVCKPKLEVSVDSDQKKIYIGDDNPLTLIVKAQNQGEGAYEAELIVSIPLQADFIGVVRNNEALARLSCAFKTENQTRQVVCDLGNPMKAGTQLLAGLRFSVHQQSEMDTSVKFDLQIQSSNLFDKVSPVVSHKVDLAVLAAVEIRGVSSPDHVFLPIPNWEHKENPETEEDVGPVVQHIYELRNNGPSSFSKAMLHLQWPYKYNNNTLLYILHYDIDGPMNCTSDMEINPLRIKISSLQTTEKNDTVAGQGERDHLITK
Integrin alpha-V/beta-3, sequence (P06756 891-1048 limits assumed): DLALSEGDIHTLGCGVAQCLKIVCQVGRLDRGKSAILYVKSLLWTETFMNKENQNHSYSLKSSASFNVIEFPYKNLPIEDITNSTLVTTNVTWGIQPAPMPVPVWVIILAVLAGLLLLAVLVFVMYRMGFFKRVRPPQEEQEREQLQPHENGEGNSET
Series [2] concerns the target Integrin alpha-IIb/beta-3 (Homo sapiens, UniProt P05106+P08514). Kind of series: Binding affinity to integrin alpha2bbeta3 receptor by ELISA. The format is protein-complex assay.
The target of a further series is Integrin alpha-V/beta-5 (Homo sapiens, UniProt P06756+P18084). The experiment in a line: Binding affinity to integrin […] receptor by ELISA. The series is classed as protein-complex assay.
Integrin alpha-V/beta-5, sequence (P06756 31-889 limits assumed): as the sequence (P06756 31-889 limits assumed) above
Integrin alpha-V/beta-5, sequence (P06756 891-1048 limits assumed): as the sequence (P06756 891-1048 limits assumed) above
Integrin alpha-V/beta-5, sequence (P18084 24-799 limits assumed): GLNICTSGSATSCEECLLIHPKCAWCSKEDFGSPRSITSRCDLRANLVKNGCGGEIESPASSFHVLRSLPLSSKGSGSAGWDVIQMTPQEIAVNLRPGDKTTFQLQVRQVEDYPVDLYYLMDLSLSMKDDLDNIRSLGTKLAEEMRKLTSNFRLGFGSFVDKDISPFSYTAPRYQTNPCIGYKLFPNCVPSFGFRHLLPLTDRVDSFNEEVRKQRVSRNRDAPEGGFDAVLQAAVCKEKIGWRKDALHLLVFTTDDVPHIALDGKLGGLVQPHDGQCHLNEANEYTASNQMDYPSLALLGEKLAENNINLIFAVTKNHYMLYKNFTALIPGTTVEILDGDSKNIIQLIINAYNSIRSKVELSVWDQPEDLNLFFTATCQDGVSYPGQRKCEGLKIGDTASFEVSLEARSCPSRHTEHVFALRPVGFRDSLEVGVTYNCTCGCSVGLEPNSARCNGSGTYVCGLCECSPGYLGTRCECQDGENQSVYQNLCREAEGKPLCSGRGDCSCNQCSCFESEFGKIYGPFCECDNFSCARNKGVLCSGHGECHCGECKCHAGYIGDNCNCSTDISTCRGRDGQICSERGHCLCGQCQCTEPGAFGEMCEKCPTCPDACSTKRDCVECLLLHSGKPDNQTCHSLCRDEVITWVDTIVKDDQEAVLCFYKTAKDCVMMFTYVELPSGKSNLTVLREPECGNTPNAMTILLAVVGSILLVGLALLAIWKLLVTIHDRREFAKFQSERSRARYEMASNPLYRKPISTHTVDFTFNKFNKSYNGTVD
The next series deals with Rattus norvegicus. Kind of series: (§1) Terminal half life in Clearance in Wistar rat at 1 mg/kg, iv. The series is classed as ADME, organism-based. Details: dose 1 mg/kg, route intravenous. The following applies: in vivo.
Series [3] is described as follows: Clearance in Wistar rat at 1 mg/kg, iv. The format is ADME, organism-based. Details: dose 1 mg/kg, route intravenous. The note with it: in vivo.
A short description of series [4]: as §1. The following applies: Wistar, in vivo, read-out: beta t1/2. Details: dose 1 mg/kg, route intravenous. The format is ADME, organism-based.

Integrin alpha-5/beta-1, sequence (P05556 21-798 limits assumed): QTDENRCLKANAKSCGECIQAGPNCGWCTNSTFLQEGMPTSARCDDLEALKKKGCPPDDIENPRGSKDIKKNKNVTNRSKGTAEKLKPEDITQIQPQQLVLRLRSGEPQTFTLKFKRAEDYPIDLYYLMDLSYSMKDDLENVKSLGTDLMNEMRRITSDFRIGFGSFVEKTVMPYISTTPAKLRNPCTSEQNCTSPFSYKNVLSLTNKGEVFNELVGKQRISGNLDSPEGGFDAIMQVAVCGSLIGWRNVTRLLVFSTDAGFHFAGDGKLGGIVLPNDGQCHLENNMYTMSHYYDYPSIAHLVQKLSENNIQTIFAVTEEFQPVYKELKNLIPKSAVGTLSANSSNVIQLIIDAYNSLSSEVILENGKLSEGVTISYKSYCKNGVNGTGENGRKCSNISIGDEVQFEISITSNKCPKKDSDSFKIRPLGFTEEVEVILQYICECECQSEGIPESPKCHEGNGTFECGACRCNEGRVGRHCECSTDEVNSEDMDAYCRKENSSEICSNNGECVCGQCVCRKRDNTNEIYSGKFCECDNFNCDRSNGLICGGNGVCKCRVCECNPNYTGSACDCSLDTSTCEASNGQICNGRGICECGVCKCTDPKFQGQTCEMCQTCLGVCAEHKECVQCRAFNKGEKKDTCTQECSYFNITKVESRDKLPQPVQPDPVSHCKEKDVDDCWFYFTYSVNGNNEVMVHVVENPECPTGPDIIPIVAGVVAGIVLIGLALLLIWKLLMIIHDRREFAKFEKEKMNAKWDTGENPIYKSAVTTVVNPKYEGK
Integrin alpha-5/beta-1, sequence (P08648 42-894 limits assumed): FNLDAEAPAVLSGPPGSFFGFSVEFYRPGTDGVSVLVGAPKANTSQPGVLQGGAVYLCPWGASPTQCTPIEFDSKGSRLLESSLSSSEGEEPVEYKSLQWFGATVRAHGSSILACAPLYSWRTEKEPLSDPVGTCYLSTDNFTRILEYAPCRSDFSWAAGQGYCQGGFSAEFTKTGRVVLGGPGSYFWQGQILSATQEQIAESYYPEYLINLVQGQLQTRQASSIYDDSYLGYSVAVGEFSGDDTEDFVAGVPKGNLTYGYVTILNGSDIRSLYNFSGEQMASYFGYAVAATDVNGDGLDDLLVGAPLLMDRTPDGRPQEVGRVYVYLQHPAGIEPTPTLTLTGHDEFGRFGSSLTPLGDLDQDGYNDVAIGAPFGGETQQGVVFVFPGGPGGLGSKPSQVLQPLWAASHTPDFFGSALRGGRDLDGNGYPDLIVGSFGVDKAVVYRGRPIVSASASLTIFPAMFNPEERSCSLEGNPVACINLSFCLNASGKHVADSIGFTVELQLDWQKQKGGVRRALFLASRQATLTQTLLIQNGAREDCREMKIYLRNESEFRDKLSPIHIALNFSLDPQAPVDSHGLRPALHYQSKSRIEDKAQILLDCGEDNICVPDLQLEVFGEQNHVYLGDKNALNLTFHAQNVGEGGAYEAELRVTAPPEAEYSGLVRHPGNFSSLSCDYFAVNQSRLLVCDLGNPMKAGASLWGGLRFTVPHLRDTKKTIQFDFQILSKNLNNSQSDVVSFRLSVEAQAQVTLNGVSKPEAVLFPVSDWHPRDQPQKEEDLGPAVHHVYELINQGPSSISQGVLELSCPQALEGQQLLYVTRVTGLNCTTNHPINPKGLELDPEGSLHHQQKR
Integrin alpha-5/beta-1, sequence (P08648 895-1049 limits assumed): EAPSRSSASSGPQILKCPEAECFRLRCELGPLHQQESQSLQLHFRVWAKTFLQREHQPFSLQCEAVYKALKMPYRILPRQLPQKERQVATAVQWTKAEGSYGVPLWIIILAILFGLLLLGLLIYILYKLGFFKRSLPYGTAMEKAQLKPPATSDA

Take `Cc1ccnc(NCC2CCN(c3ccc(CC(NC(=O)c4c(C)cc(C)cc4C)C(=O)O)cc3)CC2)c1` (racemic): the IC50 was found to be 2.3 nM on Integrin alpha-5/beta-1, 84 nM on Integrin alpha-V/beta-3, 23000 nM in series [2] and 11000 nM on Integrin alpha-V/beta-5. The molecule further had a bioavailability in series [1] of 16%. Also, the “beta t1/2” value with Rattus norvegicus amounted to 1.1 h. In series [3], the clearance came out at 70 mL/min/kg.

As for `Cc1ccnc(NCc2cc(-c3ccc(C[C@H](NC(=O)c4c(C)cc(C)cc4C)C(=O)O)cc3)on2)c1`, the IC50 is 6.1 nM on Integrin alpha-5/beta-1, 261 nM at Integrin alpha-V/beta-3, 118000 nM in series [2] and 257 nM on Integrin alpha-V/beta-5. In series [1], this molecule gave a bioavailability of 11%. The half-life in series [4] turned out to be 2.3 h. For the same molecule, the clearance in series [3] is 9 mL/min/kg.

Regarding `Cc1ccnc(NCc2cccc(-c3ccc(CC(NC(=O)c4c(C)cc(C)cc4C)C(=O)O)cc3)c2)c1` (racemic), the IC50 was 87 nM at Integrin alpha-5/beta-1, 890 nM on Integrin alpha-V/beta-3, 180000 nM in series [2] and over 20000 nM on Integrin alpha-V/beta-5.

With `Cc1ccnc(NCc2csc(-c3ccc(C[C@H](NC(=O)c4c(C)cc(C)cc4C)C(=O)O)cc3)c2)c1`, the IC50 at Integrin alpha-5/beta-1 was found to be 46 nM; at Integrin alpha-V/beta-3, 1730 nM; in series [2], 97000 nM; at Integrin alpha-V/beta-5, 3570 nM.

For `Cc1ccnc(NCc2coc(-c3ccc(C[C@H](NC(=O)c4c(C)cc(C)cc4C)C(=O)O)cc3)c2)c1`, the IC50 on Integrin alpha-5/beta-1 turned out to be 79 nM; at Integrin alpha-V/beta-3, 2420 nM; in series [2] it was 52000 nM; at Integrin alpha-V/beta-5, 2480 nM. This molecule also registered a bioavailability in series [1] of 26%. Also, in series [4], the half-life amounted to 1.47 h. This molecule also yielded a clearance in series [3] of 17 mL/min/kg.

Turning to `Cc1ccnc(NCc2cnc(-c3ccc(C[C@H](NC(=O)c4c(C)cc(C)cc4C)C(=O)O)cc3)s2)c1`, the half-inhibitory concentration (IC50) on Integrin alpha-5/beta-1 was determined as 13 nM; at Integrin alpha-V/beta-3, 472 nM; in series [2], 150000 nM; on Integrin alpha-V/beta-5, 502 nM.

Consider `Cc1ccnc(NCc2cn(-c3ccc(C[C@H](NC(=O)c4c(C)cc(C)cc4C)C(=O)O)cc3)nn2)c1`, for which the IC50 came to 1.5 nM on Integrin alpha-5/beta-1, 100 nM on Integrin alpha-V/beta-3, 89000 nM in series [2] and 347 nM at Integrin alpha-V/beta-5.

With `Cc1ccnc(NCC2CC(=O)N(c3ccc(C[C@H](NC(=O)c4c(C)cc(C)cc4C)C(=O)O)cc3)C2)c1` (some centres undefined), the IC50 is 1.6 nM on Integrin alpha-5/beta-1, 319 nM on Integrin alpha-V/beta-3 and 1340 nM at Integrin alpha-V/beta-5.

In the case of `Cc1ccnc(NCc2sccc2-c2ccc(C[C@H](NC(=O)c3c(C)cc(C)cc3C)C(=O)O)cc2)c1`, the IC50 is 887 nM at Integrin alpha-5/beta-1, 16000 nM at Integrin alpha-V/beta-3, 77000 nM in series [2] and 17000 nM on Integrin alpha-V/beta-5.

Regarding `Cc1cc(C)c(C(=O)N[C@@H](Cc2ccc(OCCCNc3ccccn3)cc2)C(=O)O)c(C)c1`, the IC50 at Integrin alpha-5/beta-1 came out at 2.5 nM; at Integrin alpha-V/beta-3 it was 703 nM.

On to `Cc1cc(C)c(C(=O)N[C@@H](CNC(=O)CO[C@H]2C[C@H](CNc3ccccn3)N(C(=O)CC(C)(C)C)C2)C(=O)O)c(C)c1`, for which the IC50 is 1.6 nM at Integrin alpha-5/beta-1, 16000 nM on Integrin alpha-V/beta-3, over 50000 nM in series [2] and 90700 nM on Integrin alpha-V/beta-5.

In the case of `Cc1ccnc(NCc2ccc(-c3ccc(CC(NC(=O)c4c(C)cc(C)cc4C)C(=O)O)cc3)cc2)c1` (racemic), the IC50 on Integrin alpha-5/beta-1 was 65 nM; at Integrin alpha-V/beta-3, 2920 nM; in series [2], 165000 nM; at Integrin alpha-V/beta-5, over 20 nM.
